Tests used:
sensor proteins = assay: Sensor protein aggregation in the presence of compound but in the absence of HTTex1Q48 seeds; assay type: biochemical, human; conditions: compound present, no HTTex1Q48 seeds; residual concentration
Method: (§1) Purified GST-Ex1Q48-CyPet and GST-Ex1Q48-YPet were diluted in aggregation buffer at an equimolar ratio to a final concentration of 1.2 μM (0.6 μM each) with 14 U PSP per nmol sensor proteins if not stated otherwise. The solution was then mixed with preformed aggregates of Ex1Q48 (seeds) at varying concentrations with or without prior sonication and transferred to a black 384-well plate (with a final reaction volume of 30 μl per well and a sensor protein concentration of 1.2 μM). For quantification of seeding-competent HTT species in tissue samples, the sensor-protein mixture was supplemented with up to 10% (v/v) tissue homogenate. Fluorescence signals were measured every 20 min following a 5 s pulse of vertical shaking with a Tecan M200 fluorescence plate reader at 25° C. for up to 48 h. CyPet donor fluorescence was measured at excitation (Ex): 435 nm/emission (Em): 475 nm; YPet acceptor fluorescence at Ex: 500 nm/Em: 530 nm; the FRET channel (DA) was recorded at Ex: 435 nm/Em: 530 nm. Raw signals were processed by subtracting the background fluorescence of unlabeled Ex1Q48 in all channels. […] In brief, the FRET efficiency E (in %) was calculated as follows: E=(DA-cDxDD-cAxAA)/AA with DD=donor channel signal and AA=acceptor channel signal. […]

HTTex1Q48 = HTTex1Q48 (Homo sapiens, UniProt P42858, INS38QQQQQQQQQQQQQQQQQQQQQQQQQQQ/P65L/V80A); conditions: previously shown (Wagner et al., 2018); cited from earlier work
HTTex1Q48 seeds = molecular target: T1, HTTex1Q48 seeds (Homo sapiens, UniProt P42858, INS38QQQQQQQQQQQQQQQQQQQQQQQQQQQ/P65L/V80A); assay: FRASE assay of HTTex1Q48 seeds pre-incubated with compound; assay type: biochemical; conditions: preformed, sonicated HTTex1Q48 aggregates incubated with compound in 200-fold molar excess at 25° C. for 20 hours; compared to seeds incubated with DMSO
T1 construct: GST (N, cleaved yes); made in house; host or cells: E. coli BL21-CodonPlus-RP
Method: Httex1Q48 seeds were pre-incubated with 04 in 200-fold molar excess at 25° C. for 20 h and subsequently analyzed for their seeding activity using FRASE assays. (A) Aggregation profiles of sensor proteins in the presence or absence of O4 treated seeds and respective controls. Data are mean±SD of technical triplicates.
as §1, with “The solution was then mixed with preformed aggregates of Ex1Q48 (seeds) at varying concentrations with or without prior sonication and transferred to a black 384-well plate (with a final reaction volume of 30 μl per well and a sensor protein concentration of 1.2 μM).” left out

Ex1Q48-CyPet/-YPet = assay: FRASE assay: effect of added preformed fibrils/seeds on Ex1Q48-CyPet/-YPet polymerization; assay type: biochemical, human; conditions: non-polyQ fibrillar aggregates produced in vitro; sensor 1:1 mixture, total conc. 1.2 μM
Method: (B) Effects of small, preformed Ex1Q48 seeds (1250 kDa) on Ex1Q48-CyPet and -YPet (1:1 mixture, total conc. 1.2 μM) co-aggregation. Data are mean±SEM (n=5).
(D) Effects of non-polyQ fibrils on Ex1Q48-CyPet and -YPet (1:1 mixture, total conc. 1.2 μM) co-aggregation. Data are mean±SD of triplicates.
Spontaneous Ex1Q48 aggregation was initiated by addition of 14 U PreScission protease (GE Healthcare) per nmol purified GST-Ex1Q48 fusion protein (2 μM). The aggregation reaction was performed in 50 mM Tris-HCl pH 7.4, 150 mM NaCl, 1 mM EDTA and 1 mM DTT at 25° C. and constant agitation (450 rpm) for 24 h. […] K2Q48P6 protein for seeding experiments was prepared from GST-K2Q48P6 fusion protein using the same protocol. ΔN17Q48+6PRD protein for seeding experiments was prepared from GST-ΔN17Q48+6PRD fusion protein using the same protocol. ΔN17Q40+6PRD protein for seeding experiments was prepared from GST-ΔN17Q40+6PRD fusion protein using the same protocol. Synthetic human IAPP was aggregated as described previously (Gao et al., 2015). Lyophilized α-Syn was dissolved in PBS at 500 μM and centrifuged (4° C., 265.000×g) after a 5 min sonication step to remove aggregated material. The supernatant was incubated for 7 d at 37° C. under constant shaking in the presence of a single glass bead. Tau40 was aggregated for 6 d at 37° C. under constant shaking in 100 mM sodium acetate, pH 7.4, and 1 mM DTT in the presence of heparin. Synthetic human Δβ1-42 was dissolved in 100 mM NaOH and diluted to 200 μM in low salt buffer (10 mM K3PO4, pH 7.4, 10 mM NaCl). Aggregation was performed for 6 h at 37° C. under constant agitation.
Purified GST-Ex1Q48-CyPet and GST-Ex1Q48-YPet were diluted in aggregation buffer at an equimolar ratio to a final concentration of 1.2 μM (0.6 μM each) with 14 U PSP per nmol sensor proteins if not stated otherwise. […] For quantification of seeding-competent HTT species in tissue samples, the sensor-protein mixture was supplemented with up to 10% (v/v) tissue homogenate. Fluorescence signals were measured every 20 min following a 5 s pulse of vertical shaking with a Tecan M200 fluorescence plate reader at 25° C. for up to 48 h. CyPet donor fluorescence was measured at excitation (Ex): 435 nm/emission (Em): 475 nm; YPet acceptor fluorescence at Ex: 500 nm/Em: 530 nm; the FRET channel (DA) was recorded at Ex: 435 nm/Em: 530 nm. Raw signals were processed by subtracting the background fluorescence of unlabeled Ex1Q48 in all channels. […] In brief, the FRET efficiency E (in %) was calculated as follows: E=(DA-cDxDD-cAxAA)/AA with DD=donor channel signal and AA=acceptor channel signal.
Seeding effects (Δt50 [h]) were quantified by subtracting the t50 values (time at half-maximal FRET efficiency) of the respective sample from the negative control. […]

Chain of HTTex1Q48 (P42858 with tags, fused parts or gaps with the stated changes): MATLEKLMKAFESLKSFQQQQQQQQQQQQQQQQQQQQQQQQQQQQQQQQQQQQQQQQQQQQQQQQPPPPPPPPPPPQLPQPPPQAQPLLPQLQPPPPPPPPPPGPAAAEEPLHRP
T1 sequence (P42858 with tags, fused parts or gaps with the stated changes): as above

| Compound | effect on sensor protein aggregation (sensor proteins) | interference with the aggregation of HTTex1Q48 (HTTex1Q48) | HTTex1Q48 seeding activity (HSA, Δt50) after pre-incubation of seeds (HTTex1Q48 seeds) | influence on Ex1Q48-CyPet/-YPet polymerization (Ex1Q48-CyPet/-YPet) |
| --- | --- | --- | --- | --- |
| O=c1cc2oc3cc(O)c(-c4ccc(O)cc4O)cc3nc-2cc1-c1ccc(O)cc1O [O4] | no significant effect | interfere with the aggregation | strongly reduces |  |
| IAPP: synthetic human islet amyloid polypeptide aggregated in vitro (KCNTATCATQRLANFLVHSSNNFGAILSSTNVGSNTY) |  |  |  | did not significantly influence |
| amyloid-β: synthetic human Aβ1-42 aggregated in vitro |  |  |  | did not significantly influence |
| tau: recombinant Tau40 protein aggregated in the presence of heparin |  |  |  | did not significantly influence |
| α-synuclein |  |  |  | did not significantly influence |
